Assay type in all cases: cell-based
The target in one assay is human TLR7 (Homo sapiens (Human), UniProt Q9NYK1). The experiment in a line: TLR7 inhibition reporter assay (HEK-Blue, SEAP). The settings on record: HEK-Blue cells overexpressing human TLR7, gardiquimod 7.5 μM stimulation. An outline of the steps: (§1)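 After 30 min room-temperature pre-incubation with compound (0.05 nM–50 μM), reporter HEK-Blue lines were activated by ODN2006 5 nM for TLR9, R848 15.9 μM for TLR8 or gardiquimod 7.5 μM for TLR7. SEAP detected after 22 h, 37 °C; inhibition scaled between agonist+DMSO wells and known-inhibitor control.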
Chain of human TLR7 (Q9NYK1 27-1049): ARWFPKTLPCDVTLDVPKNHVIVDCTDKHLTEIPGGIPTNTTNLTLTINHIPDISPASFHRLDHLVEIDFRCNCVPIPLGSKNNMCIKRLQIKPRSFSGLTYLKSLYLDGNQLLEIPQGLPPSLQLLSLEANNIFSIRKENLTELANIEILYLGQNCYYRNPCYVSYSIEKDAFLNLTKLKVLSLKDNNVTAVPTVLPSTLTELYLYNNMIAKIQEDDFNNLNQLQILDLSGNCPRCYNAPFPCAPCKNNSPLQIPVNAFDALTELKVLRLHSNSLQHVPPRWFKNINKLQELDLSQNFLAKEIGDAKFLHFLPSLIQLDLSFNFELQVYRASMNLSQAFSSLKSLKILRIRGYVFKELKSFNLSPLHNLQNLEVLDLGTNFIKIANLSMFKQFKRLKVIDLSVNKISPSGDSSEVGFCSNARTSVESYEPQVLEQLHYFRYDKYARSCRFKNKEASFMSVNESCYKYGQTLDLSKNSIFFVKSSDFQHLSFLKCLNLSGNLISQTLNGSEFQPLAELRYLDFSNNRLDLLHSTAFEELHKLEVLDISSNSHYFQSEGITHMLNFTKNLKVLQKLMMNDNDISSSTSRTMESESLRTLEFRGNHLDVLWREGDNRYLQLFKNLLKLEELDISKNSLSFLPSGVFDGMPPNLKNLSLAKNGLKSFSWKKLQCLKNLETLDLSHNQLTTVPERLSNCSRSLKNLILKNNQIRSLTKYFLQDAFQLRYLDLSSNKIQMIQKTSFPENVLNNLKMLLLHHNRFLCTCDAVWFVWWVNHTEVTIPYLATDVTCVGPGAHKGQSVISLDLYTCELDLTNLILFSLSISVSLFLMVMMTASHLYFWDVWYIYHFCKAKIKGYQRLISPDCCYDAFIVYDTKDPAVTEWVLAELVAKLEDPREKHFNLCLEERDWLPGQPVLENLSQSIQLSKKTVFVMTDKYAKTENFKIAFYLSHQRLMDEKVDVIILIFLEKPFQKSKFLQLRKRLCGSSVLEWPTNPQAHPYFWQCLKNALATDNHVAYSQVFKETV
A general note: A reporter such as luciferase makes a cellular process visible.

A further assay concerns the target human TLR8 (Homo sapiens (Human), UniProt Q9NR97). Put plainly: TLR8 inhibition reporter assay (HEK-Blue, SEAP). The conditions noted are these: HEK-Blue cells overexpressing human TLR8, R848 15.9 μM stimulation. The method in brief:
as §1

Another assay concerns the target human TLR9 (Homo sapiens (Human), UniProt Q9NR96). The experiment in a line: TLR9 inhibition reporter assay (HEK-Blue, SEAP). The conditions noted are these: HEK-Blue cells overexpressing human TLR9, ODN2006 5 nM stimulation. The method in brief: as §1

Bounds are passed on as bounds.

The term IC50 denotes the midpoint of a concentration-inhibition curve. High values mean weaker potency in that assay, low ones greater potency in that assay.

Chain of human TLR9 (Q9NR96 26-1032): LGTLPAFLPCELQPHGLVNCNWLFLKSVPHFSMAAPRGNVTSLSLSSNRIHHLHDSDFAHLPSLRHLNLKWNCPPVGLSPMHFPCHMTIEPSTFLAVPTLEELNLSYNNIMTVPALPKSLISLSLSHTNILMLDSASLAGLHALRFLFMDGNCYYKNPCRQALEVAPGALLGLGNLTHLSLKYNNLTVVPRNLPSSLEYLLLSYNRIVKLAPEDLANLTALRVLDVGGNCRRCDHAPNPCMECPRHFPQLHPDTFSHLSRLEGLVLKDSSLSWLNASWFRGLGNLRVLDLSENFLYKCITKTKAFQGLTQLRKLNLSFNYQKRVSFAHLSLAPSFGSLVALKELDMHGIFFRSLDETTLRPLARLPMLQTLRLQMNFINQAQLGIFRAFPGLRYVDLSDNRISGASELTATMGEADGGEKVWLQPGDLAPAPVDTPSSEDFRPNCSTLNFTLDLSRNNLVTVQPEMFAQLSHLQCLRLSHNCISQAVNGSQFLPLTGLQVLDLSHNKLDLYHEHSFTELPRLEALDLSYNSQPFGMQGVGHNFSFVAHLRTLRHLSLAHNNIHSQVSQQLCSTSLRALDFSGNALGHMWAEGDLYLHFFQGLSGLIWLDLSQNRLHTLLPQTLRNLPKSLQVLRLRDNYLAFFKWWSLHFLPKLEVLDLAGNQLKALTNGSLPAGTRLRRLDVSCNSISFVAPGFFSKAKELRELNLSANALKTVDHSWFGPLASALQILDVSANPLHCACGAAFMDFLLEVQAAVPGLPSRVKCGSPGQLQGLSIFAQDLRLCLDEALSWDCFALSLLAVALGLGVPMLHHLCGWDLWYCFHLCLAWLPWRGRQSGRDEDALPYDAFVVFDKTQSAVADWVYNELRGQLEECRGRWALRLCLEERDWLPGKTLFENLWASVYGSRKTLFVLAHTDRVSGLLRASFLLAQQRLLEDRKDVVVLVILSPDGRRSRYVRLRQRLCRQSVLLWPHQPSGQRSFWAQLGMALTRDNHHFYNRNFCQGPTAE
Chain of human TLR8 (Q9NR97 27-1041): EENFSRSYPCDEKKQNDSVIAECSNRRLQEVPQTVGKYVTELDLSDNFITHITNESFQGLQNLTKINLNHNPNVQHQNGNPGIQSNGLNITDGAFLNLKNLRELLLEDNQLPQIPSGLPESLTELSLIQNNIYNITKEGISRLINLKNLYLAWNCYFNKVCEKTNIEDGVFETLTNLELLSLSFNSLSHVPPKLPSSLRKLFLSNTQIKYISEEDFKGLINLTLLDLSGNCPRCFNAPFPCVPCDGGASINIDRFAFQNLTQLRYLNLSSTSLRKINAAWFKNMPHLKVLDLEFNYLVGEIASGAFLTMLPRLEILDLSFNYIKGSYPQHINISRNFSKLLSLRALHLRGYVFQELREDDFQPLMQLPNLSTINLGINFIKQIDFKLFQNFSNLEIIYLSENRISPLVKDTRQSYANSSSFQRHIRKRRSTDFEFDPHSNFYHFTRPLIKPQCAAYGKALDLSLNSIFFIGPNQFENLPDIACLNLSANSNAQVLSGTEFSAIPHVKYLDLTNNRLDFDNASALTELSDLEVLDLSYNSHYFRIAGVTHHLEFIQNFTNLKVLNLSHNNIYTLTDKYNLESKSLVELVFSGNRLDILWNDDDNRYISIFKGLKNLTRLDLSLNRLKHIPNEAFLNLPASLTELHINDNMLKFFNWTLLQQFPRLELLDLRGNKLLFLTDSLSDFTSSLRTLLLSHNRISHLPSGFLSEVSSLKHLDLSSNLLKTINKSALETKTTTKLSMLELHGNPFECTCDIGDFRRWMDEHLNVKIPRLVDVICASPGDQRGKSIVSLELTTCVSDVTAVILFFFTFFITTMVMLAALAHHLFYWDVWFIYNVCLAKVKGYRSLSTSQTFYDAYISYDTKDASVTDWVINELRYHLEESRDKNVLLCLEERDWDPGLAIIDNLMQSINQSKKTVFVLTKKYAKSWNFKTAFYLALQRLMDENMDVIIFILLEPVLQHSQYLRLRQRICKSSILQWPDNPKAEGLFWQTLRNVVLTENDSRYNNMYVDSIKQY

Take `COc1ccc(-c2[nH]c3ccc(-c4nnc(C5CCNCC5)[nH]4)cc3c2C(C)C)cc1OC` [Example 124, 2-(3,4-dimethoxyphenyl)-3-isopropyl-5-(5-(piperidin-4-yl)-4H-1,2,4-triazol-3-yl)-1H-indole]: the IC50 on human TLR7 came to 182 nM; at human TLR8 it was 108 nM; at human TLR9 it was 9200 nM.

On to `CC(C)c1c(-c2ccnc3[nH]ncc23)[nH]c2ccc(-c3nnc(C(=O)N4CCCN(C)CC4)o3)cc12` [Example 125, (5-(3-isopropyl-2-(1H-pyrazolo[3,4-b]pyridin-4-yl)-1H-indol-5-yl)-1,3,4-oxadiazol-2-yl)(4-methyl-1,4-diazepan-1-yl)methanone], for which the figures for the IC50 at human TLR7, at human TLR8 and at human TLR9 were 183 nM, 40 nM and 776 nM, respectively.

As to `CC(C)c1c(-c2ccnc3[nH]ncc23)[nH]c2ccc(-c3nnc([C@H]4CCCNC4)o3)cc12` [Example 126, (S)-2-(3-isopropyl-2-(1H-pyrazolo[3,4-b]pyridin-4-yl)-1H-indol-5-yl)-5-(piperidin-3-yl)-1,3,4-oxadiazole], the half-maximal inhibitory concentration (IC50) against human TLR7 is 45 nM; against human TLR8, 3.4 nM; on human TLR9, 389 nM.

Turning to `COc1ccc(-c2[nH]c3ccc(-c4nc(C(=O)N5CC6CNCC6C5)co4)cc3c2C(C)C)cc1OC` (stereo not drawn) [Example 127, (2-(2-(3,4-dimethoxyphenyl)-3-isopropyl-1H-indol-5-yl)oxazol-4-yl)(hexahydropyrrolo[3,4-c]pyrrol-2(1H)-yl)methanone], the IC50 against human TLR7 was 21 nM; at human TLR8 it was 6.5 nM; against human TLR9, 1580 nM.

Regarding `CC(C)c1c(-c2ccnc3n[nH]cc23)[nH]c2ccc(-c3nnc(CN4CCCC4)o3)cc12` [Example 128, 2-(3-isopropyl-2-(2H-pyrazolo[3,4-b]pyridin-4-yl)-1H-indol-5-yl)-5-(pyrrolidin-1-ylmethyl)-1,3,4-oxadiazole], the results for the IC50 against human TLR7, on human TLR8 and against human TLR9 were 1100 nM, 167 nM and 34100 nM, respectively.

With `COc1ccc(-c2[nH]c3ccc(-c4nnc(C5CCN(CC(=O)N(C)C)CC5)[nH]4)cc3c2C(C)C)cc1OC` [Example 129, 2-(4-(5-(2-(3,4-dimethoxyphenyl)-3-isopropyl-1H-indol-5-yl)-4H-1,2,4-triazol-3-yl)piperidin-1-yl)-N,N-dimethylacetamide], the figures for the IC50 against human TLR7, against human TLR8 and against human TLR9 were 60 nM, 14 nM and 3460 nM, respectively.

Take `CNC(=O)CN1CCC(c2nnc(-c3ccc4[nH]c(-c5ccc(OC)c(OC)c5)c(C(C)C)c4c3)[nH]2)CC1` [Example 130, 2-(4-(5-(2-(3,4-dimethoxyphenyl)-3-isopropyl-1H-indol-5-yl)-4H-1,2,4-triazol-3-yl)piperidin-1-yl)-N-methylacetamide]: the IC50 was 27 nM at human TLR7, 209 nM against human TLR8 and 7000 nM at human TLR9.

For `COc1ccc(-c2[nH]c3ccc(-c4nnc(C5CCN(C(=O)CN(C)C)CC5)[nH]4)cc3c2C(C)C)cc1OC` [Example 131, 1-(4-(5-(2-(3,4-dimethoxyphenyl)-3-isopropyl-1H-indol-5-yl)-4H-1,2,4-triazol-3-yl)piperidin-1-yl)-2-(dimethylamino)ethan-1-one], the half-maximal inhibitory concentration (IC50) was 29 nM at human TLR7, 37 nM on human TLR8 and 6480 nM against human TLR9.

Regarding `CNCc1nnc(-c2ccc3[nH]c(-c4ccnc5n[nH]cc45)c(C(C)C)c3c2)o1` [Example 132, 1-(5-(3-isopropyl-2-(2H-pyrazolo[3,4-b]pyridin-4-yl)-1H-indol-5-yl)-1,3,4-oxadiazol-2-yl)-N-methylmethanamine], the half-maximal inhibitory concentration (IC50) is 2680 nM at human TLR7, 44 nM against human TLR8 and 47400 nM against human TLR9.

In the case of `Cc1cc(-c2[nH]c3ccc(-c4nnc(C(=O)NCCN(C)C)s4)cc3c2C(C)C)ccn1` [Example 133, N-(2-(dimethylamino)ethyl)-5-(3-isopropyl-2-(2-methylpyridin-4-yl)-1H-indol-5-yl)-1,3,4-thiadiazole-2-carboxamide], the IC50 against human TLR7 was 18 nM; on human TLR8, 2 nM; at human TLR9, 441 nM.

`Cc1cc(-c2[nH]c3ccc(-c4nnc(C(=O)NC5CCN(C(C)C)CC5)s4)cc3c2C(C)C)ccn1` [Example 135, 5-(3-isopropyl-2-(2-methylpyridin-4-yl)-1H-indol-5-yl)-N-(1-isopropylpiperidin-4-yl)-1,3,4-thiadiazole-2-carboxamide]: the half-inhibitory concentration (IC50) against human TLR7 worked out at 44 nM; at human TLR8 it was 7.8 nM; at human TLR9, 1380 nM.

Regarding `COc1ccc(-c2[nH]c3ccc(-c4ccc5c(c4)CCNC5)cc3c2C(C)C)cc1OC` [Example 136, 6-(2-(3,4-dimethoxyphenyl)-3-isopropyl-1H-indol-5-yl)-1,2,3,4-tetrahydroisoquinoline], the half-inhibitory concentration (IC50) came to 57 nM against human TLR7, 38 nM on human TLR8 and 6880 nM on human TLR9.

As for `Cc1cc(-c2[nH]c3ccc(-c4nnc(C(=O)NC5CCNC5)s4)cc3c2C(C)C)ccn1` (stereo not drawn) [Example 137, 5-(3-isopropyl-2-(2-methylpyridin-4-yl)-1H-indol-5-yl)-N-(pyrrolidin-3-yl)-1,3,4-thiadiazole-2-carboxamide], the results for the IC50 against human TLR7, on human TLR8 and against human TLR9 were 29 nM, 2.7 nM and 705 nM, respectively.

As to `Cc1cc(-c2[nH]c3ccc(-c4nnc(CC5CCCCN5)o4)cc3c2C(C)C)ccn1` (stereo not drawn) [Example 138, 2-(3-isopropyl-2-(2-methylpyridin-4-yl)-1H-indol-5-yl)-5-(piperidin-2-ylmethyl)-1,3,4-oxadiazole], the IC50 against human TLR7 is 26 nM; against human TLR8, 1.4 nM; at human TLR9, 542 nM.

For `Cc1cc(-c2[nH]c3ccc(-c4nnc([C@@H]5CCNC5)o4)cc3c2C(C)C)ccn1` [Example 139, (R)-2-(3-isopropyl-2-(2-methylpyridin-4-yl)-1H-indol-5-yl)-5-(pyrrolidin-3-yl)-1,3,4-oxadiazole], the figures for the IC50 against human TLR7, at human TLR8 and against human TLR9 were 28 nM, 2.8 nM and 523 nM, respectively.

On to `Cc1cc(-c2[nH]c3ccc(-c4nnc(CN5CCNCC5)o4)cc3c2C(C)C)ccn1` [Example 140, 2-(3-isopropyl-2-(2-methylpyridin-4-yl)-1H-indol-5-yl)-5-(piperazin-1-ylmethyl)-1,3,4-oxadiazole], for which the half-maximal inhibitory concentration (IC50) on human TLR7 was 67 nM; on human TLR8 it was 5.2 nM; against human TLR9, 468 nM.

Regarding `Cc1cc(-c2[nH]c3ccc(-c4nnc(Cn5ccnc5)o4)cc3c2C(C)C)ccn1` [Example 141, 2-((1H-imidazol-1-yl)methyl)-5-(3-isopropyl-2-(2-methylpyridin-4-yl)-1H-indol-5-yl)-1,3,4-oxadiazole], the IC50 against human TLR7 is 192 nM; at human TLR8, 27 nM; at human TLR9, greater than 50000 nM.

In the case of `CNCCc1nnc(-c2ccc3[nH]c(-c4ccnc(C)c4)c(C(C)C)c3c2)o1` [Example 142, 2-(5-(3-isopropyl-2-(2-methylpyridin-4-yl)-1H-indol-5-yl)-1,3,4-oxadiazol-2-yl)-N-methylethan-1-amine], the half-inhibitory concentration (IC50) came out at 25 nM against human TLR7, 1.7 nM at human TLR8 and 621 nM on human TLR9.

In the case of `Cc1cc(-c2[nH]c3ccc(-c4nnc(CCN(C)C)o4)cc3c2C(C)C)ccn1` [Example 143, 2-(5-(3-isopropyl-2-(2-methylpyridin-4-yl)-1H-indol-5-yl)-1,3,4-oxadiazol-2-yl)-N,N-dimethylethan-1-amine], the IC50 against human TLR7 stood at 47 nM; at human TLR8 it was 0.8 nM; against human TLR9 it was 1680 nM.

With `Cc1cc(-c2[nH]c3ccc(-c4nnc(Cc5c[nH]cn5)o4)cc3c2C(C)C)ccn1` [Example 144, 2-((1H-imidazol-4-yl)methyl)-5-(3-isopropyl-2-(2-methylpyridin-4-yl)-1H-indol-5-yl)-1,3,4-oxadiazole], the values for the concentration for half-maximal inhibition (IC50) at human TLR7, against human TLR8 and at human TLR9 were 258 nM, 17 nM and greater than 50000 nM, respectively.

Turning to `Cc1cc(-c2[nH]c3ccc(-c4nnc(C[C@H]5CCCN5)o4)cc3c2C(C)C)ccn1` [Example 145, (R)-2-(3-isopropyl-2-(2-methylpyridin-4-yl)-1H-indol-5-yl)-5-(pyrrolidin-2-ylmethyl)-1,3,4-oxadiazole], the values for the IC50 on human TLR7, against human TLR8 and against human TLR9 were 34 nM, 1 nM and 633 nM, respectively.

Consider `Cc1cc(-c2[nH]c3ccc(-c4nnc([C@H]5CCNC5)o4)cc3c2C(C)C)ccn1` [Example 146, (S)-2-(3-isopropyl-2-(2-methylpyridin-4-yl)-1H-indol-5-yl)-5-(pyrrolidin-3-yl)-1,3,4-oxadiazole], for which the IC50 against human TLR7 came to 15 nM; at human TLR8, 3 nM; on human TLR9, 651 nM.

On to `COc1ccc(-c2[nH]c3ccc(-c4nc(C(=O)NC5CCN(C(C)C)CC5)cs4)cc3c2C(C)C)cc1OC` [Example 147, 2-(2-(3,4-dimethoxyphenyl)-3-isopropyl-1H-indol-5-yl)-N-(1-isopropylpiperidin-4-yl)thiazole-4-carboxamide], for which the IC50 against human TLR7 was 192 nM; at human TLR8, 20 nM; against human TLR9, 2250 nM.

With `CC(C)c1c(-c2ccnc3[nH]ncc23)[nH]c2ccc(-c3nnc(CNC4CC4)o3)cc12` [Example 148, N-((5-(3-isopropyl-2-(1H-pyrazolo[3,4-b]pyridin-4-yl)-1H-indol-5-yl)-1,3,4-oxadiazol-2-yl)methyl)cyclopropanamine], the half-maximal inhibitory concentration (IC50) was 945 nM against human TLR7, 37 nM on human TLR8 and greater than 50000 nM against human TLR9.
